Results from ChEMBL document CHEMBL1126087, “(E)-1,3-dialkyl-7-methyl-8-(3,4,5-trimethoxystyryl)xanthines: potent and selective adenosine A2 antagonists” (J Med Chem, 1992).

Tests used:
Adenosine receptor A1 [1] = biological target: T1, Adenosine receptor A1 (Cavia porcellus, UniProt P47745)
T1 sequence (P47745 whole entry): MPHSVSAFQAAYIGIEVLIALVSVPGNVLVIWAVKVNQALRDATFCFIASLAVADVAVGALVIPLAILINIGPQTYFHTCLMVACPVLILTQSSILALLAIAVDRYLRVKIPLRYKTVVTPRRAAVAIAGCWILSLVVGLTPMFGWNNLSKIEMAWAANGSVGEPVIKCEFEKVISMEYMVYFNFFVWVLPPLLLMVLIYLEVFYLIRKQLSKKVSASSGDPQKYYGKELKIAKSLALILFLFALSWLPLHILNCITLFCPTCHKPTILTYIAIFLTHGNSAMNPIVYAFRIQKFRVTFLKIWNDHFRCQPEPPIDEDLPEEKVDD
Description: Binding affinity against adenosine A1 receptor from guinea pig forebrain membranes, using N6-[3H]cyclohexyladenosine as radioligand.

Adenosine A2 receptor = Adenosine A2 receptor (Rattus norvegicus, UniProt P29276+P30543)
Adenosine receptor A1 [2] = biological target: T2, Adenosine receptor A1 (Rattus norvegicus, UniProt P25099)
T2 sequence (P25099 whole entry): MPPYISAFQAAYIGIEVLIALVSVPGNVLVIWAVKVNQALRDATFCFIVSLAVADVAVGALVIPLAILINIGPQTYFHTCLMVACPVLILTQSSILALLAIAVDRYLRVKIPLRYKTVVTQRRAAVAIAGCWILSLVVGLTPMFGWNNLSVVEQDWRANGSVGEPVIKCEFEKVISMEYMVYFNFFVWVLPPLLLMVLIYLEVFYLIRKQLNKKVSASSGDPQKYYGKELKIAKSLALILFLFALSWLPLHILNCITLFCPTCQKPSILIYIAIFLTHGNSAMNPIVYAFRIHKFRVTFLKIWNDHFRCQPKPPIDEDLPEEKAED

Adenosine receptor A1 [3] = biological target: T2, Adenosine receptor A1; format: cell membranes, Membrane
[4] = biological target: Adenosine receptor A2a (Homo sapiens) (UniProt P29274)
Chain of Adenosine receptor A2a (Homo sapiens) (P29274 whole entry, looked up): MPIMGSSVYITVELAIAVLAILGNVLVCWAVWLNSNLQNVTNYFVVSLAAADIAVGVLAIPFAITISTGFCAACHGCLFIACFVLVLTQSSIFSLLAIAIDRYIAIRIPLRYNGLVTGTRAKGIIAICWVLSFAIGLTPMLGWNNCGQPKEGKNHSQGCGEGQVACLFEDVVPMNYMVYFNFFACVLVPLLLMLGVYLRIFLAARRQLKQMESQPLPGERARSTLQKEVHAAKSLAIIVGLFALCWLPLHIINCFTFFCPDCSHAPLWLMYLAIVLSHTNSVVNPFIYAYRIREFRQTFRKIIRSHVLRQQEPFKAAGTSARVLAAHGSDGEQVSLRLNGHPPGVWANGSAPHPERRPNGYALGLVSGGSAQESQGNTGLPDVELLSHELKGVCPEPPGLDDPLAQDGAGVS

[5] = Water solubility of the compound; format: ADME; details: read-out: S

Structure (SMILES): CCCn1c(=O)c2nc(/C=C/c3ccc(OC)c(OC)c3)[nH]c2n(CCC)c1=O
- Ki (Adenosine receptor A1 [1]): 1700 nM

Structure (SMILES): CCCn1c(=O)c2nc(C/C=C/c3ccccc3)[nH]c2n(CCC)c1=O
- Ki ratio (Cavia porcellus): 0.54
- Ki (Adenosine A2 receptor): 1600 nM
- Ki (Adenosine receptor A1 [1]): 870 nM

Structure (SMILES): COc1cc(/C=C/c2nc3c(c(=O)n(C)c(=O)n3C)n2C)cc(OC)c1OC
- Ki (Adenosine receptor A1 [1]): > 100000 nM

Structure (SMILES): COc1cc(/C=C/c2nc3c(=O)n(C)c(=O)n(C)c3[nH]2)cc(OC)c1OC
- Ki (Adenosine receptor A1 [1]): > 100000 nM

Structure (SMILES): CCCn1c(=O)c2[nH]c(CCC3CCCC3)nc2n(CCC)c1=O
- Ki (Adenosine receptor A1 [1]): 320 nM

Structure (SMILES): CCCn1c(=O)c2nc(/C(C)=C/c3ccccc3)[nH]c2n(CCC)c1=O
- Ki (Adenosine A2 receptor): > 10000 nM
- Ki (Adenosine receptor A1 [1]): > 100000 nM

Structure (SMILES): CCCn1c(=O)c2c(nc(CCc3ccccc3)n2C)n(CCC)c1=O
- Ki ratio (Cavia porcellus): 0.59
- Ki (Adenosine A2 receptor): 2200 nM
- Ki (Adenosine receptor A1 [1]): 1300 nM

Structure (SMILES): CCCn1c(=O)c2c(nc(C/C=C/c3ccccc3)n2C)n(CCC)c1=O
- Ki ratio (Cavia porcellus): 1.9
- Ki (Adenosine A2 receptor): 1800 nM
- Ki (Adenosine receptor A1 [1]): 3500 nM

Structure (SMILES): CCCn1c(=O)[nH]c(=O)c2[nH]c(/C=C/c3cc(OC)c(OC)c(OC)c3)nc21
- Ki ratio (Cavia porcellus): 0.37
- Ki (Adenosine A2 receptor): 2200 nM
- Ki (Adenosine receptor A1 [1]): 820 nM

Structure (SMILES): CCCCn1c(=O)c2nc(/C=C/c3cc(OC)c(OC)c(OC)c3)[nH]c2n(CCCC)c1=O
- Ki ratio (Cavia porcellus): 15
- Ki (Adenosine A2 receptor): 93 nM
- Ki (Adenosine receptor A1 [1]): 1400 nM

Structure (SMILES): CCCn1c(=O)c2c(nc(/C=C/c3ccc(Cl)cc3)n2C)n(CCC)c1=O
- Ki (Adenosine A2 receptor): 49 nM
- Ki (Adenosine receptor A1 [1]): > 10000 nM

Structure (SMILES): CCCn1c(=O)c2c(nc(/C=C/c3ccc(OC)cc3)n2C)n(CCC)c1=O
- Ki (Adenosine receptor A1 [2]): 340 nM
- Ki ratio (Cavia porcellus): 78
- Ki (Adenosine A2 receptor): 18 nM
- Ki (Adenosine receptor A1 [1]): 1400 nM

Structure (SMILES): CCCn1c(=O)c2nc(/C=C/c3ccc(Cl)cc3)[nH]c2n(CCC)c1=O
- Ki (Adenosine A2 receptor): > 100000 nM
- Ki (Adenosine receptor A1 [1]): > 100000 nM

Structure (SMILES): CCCn1c(=O)c2nc(CCc3ccccc3)[nH]c2n(CCC)c1=O
- Ki ratio (Cavia porcellus): 0.09
- Ki (Adenosine A2 receptor): 6200 nM
- Ki (Adenosine receptor A1 [1]): 560 nM

Structure (SMILES): C=CCn1c(=O)c2c(nc(/C=C/c3cc(OC)c(OC)c(OC)c3)n2C)n(CC=C)c1=O
- Ki (Adenosine receptor A1 [1]): > 100000 nM

Structure (SMILES): CCCn1c(=O)c2nc(CCC3CCCC3)[nH]c2n(CCC)c1=O
- Ki ratio (Cavia porcellus): 0.053
- Ki (Adenosine A2 receptor): 6000 nM

Structure (SMILES): CCCn1c(=O)c2nc(-c3ccc(S(=O)(=O)N(C)CCN(C)C)cc3)[nH]c2n(CCC)c1=O
- Ki ratio (Cavia porcellus): 5.4

Structure (SMILES): CCCCn1c(=O)c2c(nc(/C=C/c3cc(OC)c(OC)c(OC)c3)n2C)n(CCCC)c1=O
- Ki ratio (Cavia porcellus): 44
- Ki (Adenosine A2 receptor): 52 nM
- Ki (Adenosine receptor A1 [1]): 2300 nM

Structure (SMILES): CCCn1c(=O)c2[nH]c(-c3ccc(S(=O)(=O)N(C)CCN(C)C)cc3)nc2n(CCC)c1=O
- Ki (Adenosine receptor A1 [3]): 13.9 nM
- Ki (Adenosine receptor A1 [1]): 140 nM

Structure (SMILES): CCCn1c(=O)c2nc(/C=C/c3ccc(OC)cc3)[nH]c2n(CCC)c1=O
- Ki (Adenosine A2 receptor): 110 nM
- Ki (Adenosine receptor A1 [1]): > 100000 nM

Structure (SMILES): CCCn1c(=O)c2c(nc(/C=C/c3ccc(Cl)c(Cl)c3)n2C)n(CCC)c1=O
- Ki (Adenosine A2 receptor): 7500 nM
- Ki (Adenosine receptor A1 [1]): > 100000 nM

Structure (SMILES): CCCn1c(=O)c2nc(/C=C/c3ccccc3)[nH]c2n(CCC)c1=O
- Ki (Adenosine A2 receptor): 26 nM
- Ki (Adenosine receptor A1 [1]): 1800 nM

Structure (SMILES): CCCn1c(=O)c2c(nc(CCC3CCCC3)n2C)n(CCC)c1=O
- Ki (Adenosine A2 receptor): > 10000 nM
- Ki (Adenosine receptor A1 [1]): 1300 nM

Structure (SMILES): CCCn1c(=O)c2c(nc(C3CCCC3)n2C)n(CCC)c1=O
- Ki ratio (Cavia porcellus): 0.26
- Ki (Adenosine A2 receptor): > 100000 nM
- Kb [4]: 220 nM
- Ki (Adenosine receptor A1 [1]): 8100 nM

Structure (SMILES): CCCn1c(=O)c2c(nc(/C(C)=C/c3ccccc3)n2C)n(CCC)c1=O
- Ki (Adenosine A2 receptor): > 10000 nM
- Ki (Adenosine receptor A1 [1]): > 10000 nM

Structure (SMILES): CCCn1c(=O)c2c(nc(/C=C/c3ccc(OC)c(OC)c3)n2C)n(CCC)c1=O
- Ki (Adenosine receptor A1 [2]): 430 nM
- solubility [5]: < 10 µg/mL

Structure (SMILES): C=CCn1c(=O)c2nc(/C=C/c3cc(OC)c(OC)c(OC)c3)[nH]c2n(CC=C)c1=O
- Ki ratio (Cavia porcellus): > 2100
- Ki (Adenosine A2 receptor): 47 nM
- Ki (Adenosine receptor A1 [1]): > 100000 nM

Structure (SMILES): CCCn1c(=O)c2c(nc(/C=C/c3cc(OC)c(OC)c(OC)c3)n2C)n(CCC)c1=O
- Ki (Adenosine receptor A1 [2]): 1100 nM
- Ki ratio (Cavia porcellus): 150
- Ki (Adenosine A2 receptor): 14 nM
- Ki (Adenosine receptor A1 [1]): 2100 nM

Structure (SMILES): CCCn1c(=O)c2nc(/C=C/c3ccc(Cl)c(Cl)c3)[nH]c2n(CCC)c1=O
- Ki (Adenosine A2 receptor): > 100000 nM
- Ki (Adenosine receptor A1 [1]): > 100000 nM

Structure (SMILES): CCCn1c(=O)c2c(nc(/C=C/c3ccccc3)n2C)n(CCC)c1=O
- Ki (Adenosine receptor A1 [2]): 220 nM
- Ki ratio (Cavia porcellus): 48
- Ki (Adenosine A2 receptor): 15 nM
- Ki (Adenosine receptor A1 [1]): 720 nM
